# Laboratory results as given in paper PMC7561186, “Rational design of balanced dual-targeting antibiotics with limited resistance” (PLoS Biology, 2020).
# Like-named read-outs stand apart in the source and are kept apart here.
# Tested on: S. aureus clinical isolates
# Experiment: microbe, parasite or virus in culture
# Type: cell-based
# Settings: Staphylococcus aureus, read-out: MIC
compound,measurement,setting,value
C[C@H]1COc2c(N3CCN(C)CC3)c(F)cc3c(=O)c(C(=O)O)cn1c23 [Levofloxacin],MIC,"ATCC 29213 / MSSA, S. aureus ATCC 29213, MSSA / VSSA, test date 2018-10-25 (three repeat lines)",0.25 µg/mL
same,MIC,"ATCC 29213 / MSSA, S. aureus ATCC 29213, MSSA / VSSA, test date 2018-11-07",0.25 µg/mL
same,MIC,"MRSA / NRS 3 / VISA, S. aureus IHMA 1308243, NRS3, MRSA / VISA",32 µg/mL
same,MIC,"MRSA / NRS 4 / VISA, S. aureus IHMA 649380, NRS4, MRSA / VISA",16 µg/mL
same,MIC,"MRSA / NRS 18 / VISA, S. aureus IHMA 649386, NRS18, MRSA / VISA",16 µg/mL
same,MIC,"MRSA / NRS 19 / VISA, S. aureus IHMA 649387, NRS19, MRSA / VISA",32 µg/mL
same,MIC,"MRSA / NRS 21 / VISA, S. aureus IHMA 649388, NRS21, MRSA / VISA",8 µg/mL
same,MIC,"MRSA / NRS 22 / USA600 / VISA, S. aureus IHMA 649389, NRS22, MRSA / VISA, USA600",16 µg/mL
same,MIC,"MRSA / NRS 23 / VISA, S. aureus IHMA 649390, NRS23, MRSA / VISA",16 µg/mL
same,MIC,"MRSA / NRS 24 / VISA, S. aureus IHMA 649391, NRS24, MRSA / VISA",64 µg/mL
same,MIC,"MRSA / NRS 26, S. aureus IHMA 649392, NRS26, MRSA / VSSA",8 µg/mL
same,MIC,"MRSA / NRS 27 / VISA, S. aureus IHMA 1308248, NRS27, MRSA / VISA",32 µg/mL
same,MIC,"MRSA / NRS 29 / VISA, S. aureus IHMA 1308250, NRS29, MRSA / VISA",16 µg/mL
same,MIC,"MRSA / NRS 37 / VISA, S. aureus IHMA 1308251, NRS37, MRSA / VISA",32 µg/mL
same,MIC,"MRSA / NRS 54, S. aureus IHMA 1308253, NRS54, MRSA / VSSA* (*Expected VAN intermediate, confirmed VAN susceptible twice), test date 2018-11-07",8 µg/mL
same,MIC,"MRSA / NRS 56 / VISA, S. aureus IHMA 1308254, NRS56, MRSA / VISA",8 µg/mL
same,MIC,"MRSA / USA100 / VRSA, S. aureus IHMA 672230, VRS1, MRSA / VRSA, USA100",32 µg/mL
same,MIC,"MRSA / USA100 / VRSA, S. aureus IHMA 672231, VRS2, MRSA / VRSA, USA100",32 µg/mL
same,MIC,"MRSA / USA100 / VRSA, S. aureus IHMA 672234, VRS4, MRSA / VRSA, USA100",> 64 µg/mL
same,MIC,"MRSA / USA100 / VRSA, S. aureus IHMA 672235, VRS5, MRSA / VRSA, USA100",64 µg/mL
same,MIC,"MRSA / USA100 / VRSA, S. aureus IHMA 672237, VRS7, MRSA / VRSA, USA100",64 µg/mL
same,MIC,"MRSA / USA100 / VRSA, S. aureus IHMA 672238, VRS8, MRSA / VRSA, USA100",16 µg/mL
same,MIC,"MRSA / USA100 / VRSA, S. aureus IHMA 672239, VRS9, MRSA / VRSA, USA100",64 µg/mL
same,MIC,"MRSA / USA100 / VRSA, S. aureus IHMA 1308256, VRS10, MRSA / VRSA, USA100",> 64 µg/mL
same,MIC,"MRSA / USA100 / VRSA, S. aureus IHMA 1308258, VRS11b, MRSA / VRSA, USA100",> 64 µg/mL
same,MIC,"MRSA / USA800 / VRSA, S. aureus IHMA 672233, VRS3b, MRSA / VRSA, USA800",16 µg/mL
same,MIC,"MRSA, S. aureus IHMA 1569509, MRSA / VSSA",4 µg/mL
same,MIC,"MRSA, S. aureus IHMA 1575268, MRSA / VSSA",32 µg/mL
same,MIC,"MRSA, S. aureus IHMA 1575629, MRSA / VSSA",8 µg/mL
same,MIC,"MRSA, S. aureus IHMA 1577820, MRSA / VSSA",> 64 µg/mL
same,MIC,"MRSA, S. aureus IHMA 1580300, MRSA / VSSA",16 µg/mL
same,MIC,"MRSA, S. aureus IHMA 1580940, MRSA / VSSA",0.5 µg/mL
same,MIC,"MRSA, S. aureus IHMA 1582100, MRSA / VSSA",32 µg/mL
same,MIC,"MRSA, S. aureus IHMA 1583795, MRSA / VSSA",32 µg/mL
same,MIC,"MRSA, S. aureus IHMA 1584223, MRSA / VSSA",8 µg/mL
same,MIC,"MRSA, S. aureus IHMA 1585316, MRSA / VSSA",32 µg/mL
same,MIC,"MRSA, S. aureus IHMA 1586780, MRSA / VSSA",16 µg/mL
same,MIC,"MRSA, S. aureus IHMA 1587322, MRSA / VSSA",0.25 µg/mL
same,MIC,"MRSA, S. aureus IHMA 1588127, MRSA / VSSA",16 µg/mL
same,MIC,"MRSA, S. aureus IHMA 1591462, MRSA / VSSA",32 µg/mL
same,MIC,"MRSA, S. aureus IHMA 1592755, MRSA / VSSA",16 µg/mL
same,MIC,"MRSA, S. aureus IHMA 1592776, MRSA / VSSA",0.25 µg/mL
same,MIC,"MRSA, S. aureus IHMA 1597106, MRSA / VSSA",16 µg/mL
same,MIC,"MRSA, S. aureus IHMA 1602095, MRSA / VSSA",0.25 µg/mL
same,MIC,"MRSA, S. aureus IHMA 1611170, MRSA / VSSA",0.25 µg/mL
same,MIC,"MRSA, S. aureus IHMA 1611612, MRSA / VSSA",32 µg/mL
same,MIC,"MRSA, S. aureus IHMA 1612228, MRSA / VSSA",8 µg/mL
same,MIC,"MRSA, S. aureus IHMA 1620441, MRSA / VSSA",32 µg/mL
same,MIC,"MRSA, S. aureus IHMA 1621638, MRSA / VSSA",0.25 µg/mL
same,MIC,"MRSA, S. aureus IHMA 1622252, MRSA / VSSA",16 µg/mL
same,MIC,"MRSA, S. aureus IHMA 1622527, MRSA / VSSA",0.25 µg/mL
same,MIC,"MRSA, S. aureus IHMA 1666371, MRSA / VSSA",> 64 µg/mL
same,MIC,"MRSA, S. aureus IHMA 1695391, MRSA / VSSA",> 64 µg/mL
same,MIC,"MRSA, S. aureus IHMA 1703428, MRSA / VSSA",0.25 µg/mL
same,MIC,"MRSA, S. aureus IHMA 1720350, MRSA / VSSA",0.25 µg/mL
same,MIC,"MRSA, S. aureus IHMA 1732989, MRSA / VSSA",64 µg/mL
same,MIC,"MRSA, S. aureus IHMA 1742231, MRSA / VSSA",> 64 µg/mL
same,MIC,"MRSA, S. aureus IHMA 1766357, MRSA / VSSA",16 µg/mL
same,MIC,"MSSA / NRS 12 / VISA, S. aureus IHMA 1308244, NRS12, MSSA / VISA",0.5 µg/mL
same,MIC,"MSSA / NRS 13 / VISA, S. aureus IHMA 1308245, NRS13, MSSA / VISA",0.5 µg/mL
same,MIC,"MSSA / NRS 14 / VISA, S. aureus IHMA 1308246, NRS14, MSSA / VISA",0.5 µg/mL
same,MIC,"MSSA / NRS 17 / VISA, S. aureus IHMA 1308247, NRS17, MSSA / VISA",16 µg/mL
same,MIC,"MSSA / NRS 28 / VISA, S. aureus IHMA 1308249, NRS28, MSSA / VISA",32 µg/mL
same,MIC,"MSSA / NRS 52, S. aureus IHMA 1308252, NRS52, MSSA / VSSA* (*Expected VAN intermediate, confirmed VAN susceptible twice), test date 2018-11-07",0.25 µg/mL
same,MIC,"MSSA / USA100 / VRSA, S. aureus IHMA 672236, VRS6, MSSA / VRSA, USA100",32 µg/mL
same,MIC,"MSSA, S. aureus IHMA 1563826, MSSA / VSSA",0.25 µg/mL
same,MIC,"MSSA, S. aureus IHMA 1565492, MSSA / VSSA",0.25 µg/mL
same,MIC,"MSSA, S. aureus IHMA 1569499, MSSA / VSSA",0.25 µg/mL
same,MIC,"MSSA, S. aureus IHMA 1569754, MSSA / VSSA",16 µg/mL
same,MIC,"MSSA, S. aureus IHMA 1574202, MSSA / VSSA",0.25 µg/mL
same,MIC,"MSSA, S. aureus IHMA 1575652, MSSA / VSSA",0.25 µg/mL
same,MIC,"MSSA, S. aureus IHMA 1575779, MSSA / VSSA",0.25 µg/mL
same,MIC,"MSSA, S. aureus IHMA 1576329, MSSA / VSSA",0.25 µg/mL
same,MIC,"MSSA, S. aureus IHMA 1577800, MSSA / VSSA",0.25 µg/mL
same,MIC,"MSSA, S. aureus IHMA 1578560, MSSA / VSSA",0.25 µg/mL
same,MIC,"MSSA, S. aureus IHMA 1580233, MSSA / VSSA",0.25 µg/mL
same,MIC,"MSSA, S. aureus IHMA 1580925, MSSA / VSSA",0.25 µg/mL
same,MIC,"MSSA, S. aureus IHMA 1580955, MSSA / VSSA",0.25 µg/mL
same,MIC,"MSSA, S. aureus IHMA 1582586, MSSA / VSSA",0.5 µg/mL
same,MIC,"MSSA, S. aureus IHMA 1582691, MSSA / VSSA",0.25 µg/mL
same,MIC,"MSSA, S. aureus IHMA 1584230, MSSA / VSSA",0.25 µg/mL
same,MIC,"MSSA, S. aureus IHMA 1587279, MSSA / VSSA",0.25 µg/mL
same,MIC,"MSSA, S. aureus IHMA 1591459, MSSA / VSSA",16 µg/mL
same,MIC,"MSSA, S. aureus IHMA 1592749, MSSA / VSSA",0.25 µg/mL
same,MIC,"MSSA, S. aureus IHMA 1592751, MSSA / VSSA",0.25 µg/mL
same,MIC,"MSSA, S. aureus IHMA 1594297, MSSA / VSSA",0.25 µg/mL
same,MIC,"MSSA, S. aureus IHMA 1597120, MSSA / VSSA",0.25 µg/mL
same,MIC,"MSSA, S. aureus IHMA 1597125, MSSA / VSSA",0.25 µg/mL
same,MIC,"MSSA, S. aureus IHMA 1599157, MSSA / VSSA",0.25 µg/mL
same,MIC,"MSSA, S. aureus IHMA 1599506, MSSA / VSSA",0.25 µg/mL
same,MIC,"MSSA, S. aureus IHMA 1602078, MSSA / VSSA",32 µg/mL
same,MIC,"MSSA, S. aureus IHMA 1604586, MSSA / VSSA",0.25 µg/mL
same,MIC,"MSSA, S. aureus IHMA 1604609, MSSA / VSSA",0.25 µg/mL
same,MIC,"MSSA, S. aureus IHMA 1609919, MSSA / VSSA",0.25 µg/mL
same,MIC,"MSSA, S. aureus IHMA 1622864, MSSA / VSSA",0.25 µg/mL
same,MIC,"MSSA, S. aureus IHMA 1626392, MSSA / VSSA",0.25 µg/mL
same,MIC,"MSSA, S. aureus IHMA 1713793, MSSA / VSSA",0.25 µg/mL
